Assay results reported in US20090030083A1, “Use of n-(2-aryl-propionyl)-sulfonamides for the treatment of spinal cord injury” (Dompe' pha.r.ma S.p.A, priority 2004, published 2009).

What was measured:
[1] = tested on: SCI in the rat; experiment: extension of post-traumatic cavity / spared tissue at lesion site (histology); format: in vivo; conditions: 28 days after SCI; for Percentage of spared tissue at lesion site (mean ± SE; n = 12), Lesion Epicenter: saline 39.8 ± 3.9; for Percentage of spared tissue at lesion site (mean ± SE; n = 12), Cavity Volume: saline 46.6 ± 3.1
Protocol: Adult Sprague-Dawley rats (females) weighing 240-260 g were maintained in the animal facilities under standard housing conditions (22±2° C., 65% humidity, artificial light from 06.00-20.00 h). A standard dry diet and water were available ad libitum. SCI in the rat was performed as previously reported (Gorio A. et al. Proc. Natl. Acad. Sci. USA 99, 9450-9455, 2002). The lesioning apparatus is computer controlled and free of the influence of gravity force. The force applied was 1N per 1 second. Extension of post-traumatic cavity was performed by classical histological techniques 28 days after SCI. […] The following days the animals were treated s.c. at 8 am and 5 pm until the 7th day after SCI. Animals were treated with compound of formula (III) (8 mg/kg) by i.v. injection within 30 minutes after SCI, then s.c. 24 hours after SCI. The following days the animals were treated s.c. every 36 hours until the 7th day after SCI.

[2] = tested on: CD68 positive cells; experiment: leukocyte infiltration after SCI (CD68 positive cells); format: in vivo, rat; conditions: for Number of infiltrated leukocytes (mean ± SE; n = 8): 15 mg/kg i.v. then s.c.
Protocol: Adult Sprague-Dawley rats (females) weighing 240-260 g were maintained in the animal facilities under standard housing conditions (22±2° C., 65% humidity, artificial light from 06.00-20.00 h). A standard dry diet and water were available ad libitum. SCI in the rat was performed as previously reported (Gorio A. et al. Proc. Natl. Acad. Sci. USA 99, 9450-9455, 2002). The lesioning apparatus is computer controlled and free of the influence of gravity force. The force applied was 1N per 1 second. Leukocyte infiltration was quantitatively estimated by CD68 positive cells 1 and 7 days after SCI. […] The following days the animals were treated s.c. at 8 am and 5 pm until the 7th day after SCI. Animals were treated with compound of formula (III) (8 mg/kg) by i.v. injection within 30 minutes after SCI, then s.c. 24 hours after SCI. The following days the animals were treated s.c. every 36 hours until the 7th day after SCI.

[3] = tested on: oligodendrocytes; experiment: apoptosis of oligodendrocytes after SCI (TUNEL); format: in vivo, rat; conditions: 28 days after SCI; for inhibition of oligodendrocyte apoptosis: vs saline; for Number of oligodendrocyte apoptic nuclei (mean ± SE; n = 12): gracilis and cuneatus fascicle, saline 14.9 ± 2
Protocol: Adult Sprague-Dawley rats (females) weighing 240-260 g were maintained in the animal facilities under standard housing conditions (22±2° C., 65% humidity, artificial light from 06.00-20.00 h). A standard dry diet and water were available ad libitum. SCI in the rat was performed as previously reported (Gorio A. et al. Proc. Natl. Acad. Sci. USA 99, 9450-9455, 2002). The lesioning apparatus is computer controlled and free of the influence of gravity force. The force applied was 1N per 1 second. Apoptosis of oligodendrocytes was determined at the level of the gracilis and cuneatus fascicle (3 mm rostrally from the site of contusion injury) 28 days after SCI using the terminal deoxynucleotidyltransferase-mediated dUTP and labeling (TUNEL) methodology. […] The following days the animals were treated s.c. at 8 am and 5 pm until the 7th day after SCI. Animals were treated with compound of formula (III) (8 mg/kg) by i.v. injection within 30 minutes after SCI, then s.c. 24 hours after SCI. The following days the animals were treated s.c. every 36 hours until the 7th day after SCI.

[4] = tested on: SCI in the rat; experiment: free locomotion test (BBB scale) after SCI, i.v./s.c. injection; format: in vivo; conditions: i.v. within 30 minutes after SCI then s.c. until 7th day; (II) 15 mg/kg, (III) 8 mg/kg; FIG. 1 and 2
Protocol: Adult Sprague-Dawley rats (females) weighing 240-260 g were maintained in the animal facilities under standard housing conditions (22±2° C., 65% humidity, artificial light from 06.00-20.00 h). A standard dry diet and water were available ad libitum. […] The force applied was 1N per 1 second. Recovery from hind limb disability was evaluated by means of “free locomotion test” performed 24 hours, 4, 7, 11, 15, 19 and 27 days after SCI. The “free locomotion test” allows the detection of feet positioning, and joint rotation. The quality of functional recovery is quantitatively expressed according to the “BBB scale” developed at the Ohio University. Such a test allows the quantification of rat hind limb free locomotion deficits by observing their movements in an open space free of obstacles: 0—Lesioned rat cannot move either limbs 1—Small movement of a joint (heap or knee) From 2 to 6—Movement in progressive extension of the 3 joints 7—Good movement of the 3 joints 8—Animals walk without plantar support of the weight From 9 to 11—Animals walk from occasionally to progressively frequent with plantar support of the weight. 12—Occasional coordination of hind limbs and forelimbs during walk From 13 to 14—Progressive coordination with the forelimbs. 15—Consistent plantar support of weight and coordination during walk; occasional movement of fingers during advancement. […]

CC(C)Cc1ccc([C@@H](C)C(=O)NS(C)(=O)=O)cc1 [compound of formula (II), (R)-ibuprofen methanesulfonamide]
tissue damage at the site of the lesion and extension of post-traumatic cavity, in words [1]: significantly reduced tissue damage
Percentage of spared tissue at lesion site (mean ± SE; n = 12), Lesion Epicenter [1]: 48.9 ± 3.0 %
Percentage of spared tissue at lesion site (mean ± SE; n = 12), Cavity Volume [1]: 58.2 ± 2.9 %
Number of infiltrated leukocytes (mean ± SE; n = 8) ([2]; Epicenter, 1 day from SCI, saline 125 ± 36): 24 ± 3
Number of infiltrated leukocytes (mean ± SE; n = 8) ([2]; Epicenter, 7 days from SCI, saline 235 ± 54): 19 ± 3
Number of infiltrated leukocytes (mean ± SE; n = 8) ([2]; Periphery, 1 day from SCI, saline 56 ± 13): 3 ± 1
Number of infiltrated leukocytes (mean ± SE; n = 8) ([2]; Periphery, 7 days from SCI, saline 99 ± 32): 4 ± 2
inhibition of leukocyte infiltration ([2]; at 24 hours and 7 days after SCI, vs saline): 80%
inhibition of oligodendrocyte apoptosis [3]: 85%
Number of oligodendrocyte apoptic nuclei (mean ± SE; n = 12) [3]: 2.1 ± 1.2

C[C@@H](C(=O)NS(C)(=O)=O)c1ccc(OS(=O)(=O)C(F)(F)F)cc1 [compound of formula (III), R-2-[(4′-trifluoromethanesulphonyloxy)phenyl]-N-methanesulfonyl propionamide]
tissue damage at the site of the lesion and extension of post-traumatic cavity, in words [1]: significantly reduced tissue damage
Percentage of spared tissue at lesion site (mean ± SE; n = 12), Lesion Epicenter [1]: 49.7 ± 4.2 %
Percentage of spared tissue at lesion site (mean ± SE; n = 12), Cavity Volume [1]: 60.4 ± 4.3 %
inhibition of oligodendrocyte apoptosis [3]: 65%
Number of oligodendrocyte apoptic nuclei (mean ± SE; n = 12) [3]: 5.2 ± 3.8
functional hind limb recovery (motor score, BBB scale), in words [4]: significantly promoted functional hind limb recovery
